The record followed here is paper PMC11363844 (Materials Today Bio, 2024).

For this assay, the system named is E. coli ATCC 25922. The assay is described as follows: Resistance development assay. The class given is cell-based.

Take `CNC(C)C1CCC(N)C(OC2C(N)CC(N)C(OC3OCC(C)(O)C(NC)C3O)C2O)O1` (centres unmarked) [gentamicin]: under “sequential culturing over 25 days”, the “day on which resistance was demonstrated” value is recorded as “fifth”. Also, the “fold increase of MIC value” (sequential culturing, by the 23rd day) worked out at 64 fold.
